Assay results from patent publication US7560468B2, “Substituted 1,4,8-triazaspiro[4,5]decan-2-one compounds” (Gruenenthal GmbH, priority 2004, dated 2009).

Legend:
[1] = tested on: NA transporter; experiment: Inhibition of noradrenalin uptake in synaptosomes; format: biochemical
[2] = tested on: batrachotoxin (BTX) binding site of the sodium channel; experiment: Affinity to the batrachotoxin (BTX) binding site of the sodium channel; conditions: rat cerebrocortex synaptosomes, [3H]-batrachotoxinin A20 α-benzoate 10 nM; test concentration not given

| SMILES | Uptake (NA), rat, 10 μM, % inhibition [1] [%] | BTX Inhibition [2] |
| --- | --- | --- |
| COc1cc(C)c(S(=O)(=O)N2CCC3(CC2)NC(=O)C(Cc2ccccc2)N3)c(C)c1C (stereo not drawn) [Example 4, 3-Benzyl-8-(4-methoxy-2,3,6-trimethylbenzolsulfonyl)-1,4,8-triazaspiro[4,5]decan-2-one] | 34 | 53 |
| CCOC(=O)CC(C)NC(=S)N1CCC2(CC1)NC(Cc1ccccc1)C(=O)N2C (stereo not drawn) [Example 131, Ethyl 3-[(3-benzyl-1-methyl-2-oxo-1,4,8-triazaspiro[4,5]decan-8-carbothioyl)amino]-butyrate] | 42 | 42 |
| COC(=O)c1ccc(CN2C(=O)C(C(C)C)NC23CCN(C(=S)NCC2CCCO2)CC3)cc1 (stereo not drawn) [Example 137, Methyl 4-{3-isopropyl-2-oxo-8-[(tetrahydrofuran-2-ylmethyl)thiocarbamoyl]-1,4,8-triazaspiro[4,5]dec-1-ylmethyl}-benzoate] | 30 | 37 |
| CCCCN1C(=O)C(C(C)C)NC12CCN(C(=S)Nc1c(F)c(F)c(F)c(F)c1F)CC2 (stereo not drawn) [Example 152, 1-Butyl-3-isopropyl-2-oxo-1,4,8-triazaspiro[4,5]decan-8-thiocarboxylic acid pentafluorobenzolamide-amide] | 37 | 39 |
| COC(=O)c1ccccc1NC(=S)N1CCC2(CC1)NC(CCSC)C(=O)N2Cc1ccccc1C#N (stereo not drawn) [Example 153, Methyl 2-{[1-(2-cyanobenzyl)-3-(2-methylsulfanylethyl)-2-oxo-1,4,8-triazaspiro[4,5]decan-8-carbothioyl]-amino}-benzoate] | 30 | 53 |
| COc1ccccc1NC(=S)N1CCC2(CC1)NC(C(C)C)C(=O)N2Cc1ccccc1 (stereo not drawn) [Example 155, 1-Benzyl-3-isopropyl-2-oxo-1,4,8-triazaspiro[4,5]decan-8-thiocarboxylic acid (2-methoxy-benzol)amide] | 52 | 32 |
| CC(C)C1NC2(CCN(C(=S)Nc3cc(F)ccc3F)CC2)N(Cc2ccccc2)C1=O (stereo not drawn) [Example 157, 1-Benzyl-3-isopropyl-2-oxo-1,4,8-triazaspiro[4,5]decan-8-thiocarboxylic acid (2,5-difluorobenzol)amide] | 38 | 39 |
| CCCCN1C(=O)C(CCSC)NC12CCN(C(=S)NCc1ccccc1)CC2 (stereo not drawn) [Example 160, 1-Butyl-3-(2-methylsulfanylethyl)-2-oxo-1,4,8-triazaspiro[4,5]decan-8-thiocarboxylic acid benzylamide] | 42 | 63 |
| CSCCC1NC2(CCN(C(=S)Nc3cccc(C)c3)CC2)N(Cc2ccccc2C#N)C1=O (stereo not drawn) [Example 161, 1-(2-Cyanobenzyl)-3-(2-methylsulfanylethyl)-2-oxo-1,4,8-triazaspiro[4,5]decan-8-thiocarboxylic acid m-tolylamide] | 33 | 53 |
| C=CCN1C(=O)C(C(C)C)NC12CCN(C(=S)NCc1ccc(F)cc1)CC2 (stereo not drawn) [Example 162, 1-Allyl-3-isopropyl-2-oxo-1,4,8-triazaspiro[4,5]decan-8-thiocarboxylic acid 4-fluorobenzylamide] | 26 |  |
| COC(=O)c1ccc(CN2C(=O)C(C(C)C)NC23CCN(C(=S)Nc2c(F)c(F)c(F)c(F)c2F)CC3)cc1 (stereo not drawn) [Example 164, Methyl 4-(3-isopropyl-2-oxo-8-pentafluorobenzolthiocarbamoyl-1,4,8-triazaspiro[4,5]dec-1-ylmethyl)benzoate] | 58 | 42 |
| CCOC(=O)NC(=S)N1CCC2(CC1)NC(C(C)C)C(=O)N2Cc1ccc(C(=O)OC)cc1 (stereo not drawn) [Example 167, Methyl 4-(8-ethoxycarbonylaminocarbothioyl-3-isopropyl-2-oxo-1,4,8-triazaspiro[4,5]dec-1-ylmethyl)benzoate] | 42 |  |
| CSCCC1NC2(CCN(C(=S)NCC3CCCO3)CC2)N(Cc2ccc(F)cc2)C1=O (stereo not drawn) [Example 168, 1-(4-Fluorobenzyl)-3-(2-methylsulfanylethyl)-2-oxo-1,4,8-triazaspiro[4,5]decan-8-thiocarboxylic acid (tetrahydrofuran-2-ylmethyl)amide] | 35 | 38 |
| CC(C)CC1NC2(CCN(C(=S)Nc3cc(C(F)(F)F)cc(C(F)(F)F)c3)CC2)N(Cc2ccccc2C#N)C1=O (stereo not drawn) [Example 169, 1-(2-Cyanobenzyl)-3-isobutyl-2-oxo-1,4,8-triazaspiro[4,5]decan-8-thiocarboxylic acid (3,5-bis-trifluoromethylbenzol)amide] | 44 | 91 |
| CC(C)CC1NC2(CCN(C(=S)NCc3ccccc3)CC2)N(Cc2ccccc2C#N)C1=O (stereo not drawn) [Example 170, 1-(2-Cyanobenzyl)-3-isobutyl-2-oxo-1,4,8-triazaspiro[4,5]decan-8-thiocarboxylic acid benzylamide] | 46 | 53 |
| CSCCC1NC2(CCN(C(=S)Nc3ccc(Cl)cc3)CC2)N(Cc2cccc(C#N)c2)C1=O (stereo not drawn) [Example 172, 1-(3-Cyanobenzyl)-3-(2-methylsulfanylethyl)-2-oxo-1,4,8-triazaspiro[4,5]decan-8-thiocarboxylic acid (4-chlorobenzol)amide] | 47 | 59 |
| CCCCN1C(=O)C(CCSC)NC12CCN(C(=S)Nc1c(F)c(F)c(F)c(F)c1F)CC2 (stereo not drawn) [Example 173, 1-Butyl-3-(2-methylsulfanylethyl)-2-oxo-1,4,8-triazaspiro[4,5]decan-8-thiocarboxylic acid pentafluorobenzolamide-amide] | 45 | 40 |
| CN1C(=O)C(Cc2ccccc2)NC12CCN(C(=S)NCc1ccc(Cl)cc1)CC2 (stereo not drawn) [Example 175, 3-Benzyl-1-methyl-2-oxo-1,4,8-triazaspiro[4,5]decan-8-thiocarboxylic acid 4-chlorobenzylamide] | 32 | 63 |
| CSCCC1NC2(CCN(C(=S)NC(C)c3ccccc3)CC2)N(Cc2cccc(C#N)c2)C1=O (stereo not drawn) [Example 181, 1-(3-Cyanobenzyl)-3-(2-methylsulfanylethyl)-2-oxo-1,4,8-triazaspiro[4,5]decan-8-thiocarboxylic acid (1-benzol-ethyl)amide] | 40 | 57 |
| COc1ccccc1NC(=S)N1CCC2(CC1)NC(CCSC)C(=O)N2Cc1ccccc1C#N (stereo not drawn) [Example 183, 1-(2-Cyanobenzyl)-3-(2-methylsulfanylethyl)-2-oxo-1,4,8-triazaspiro[4,5]decan-8-thiocarboxylic acid (2-methoxy-benzol)amide] | 29 | 37 |
| COc1ccccc1NC(=S)N1CCC2(CC1)NC(CCSC)C(=O)N2Cc1cccc(C#N)c1 (stereo not drawn) [Example 184, 1-(3-Cyanobenzyl)-3-(2-methylsulfanylethyl)-2-oxo-1,4,8-triazaspiro[4,5]decan-8-thiocarboxylic acid (2-methoxy-benzol)amide] | 32 | 36 |
| CSCCC1NC2(CCN(C(=S)NCc3ccc(Cl)cc3)CC2)N(Cc2ccccc2C#N)C1=O (stereo not drawn) [Example 193, 1-(2-Cyanobenzyl)-3-(2-methylsulfanylethyl)-2-oxo-1,4,8-triazaspiro[4,5]decan-8-thiocarboxylic acid 4-chlorobenzylamide] | 32 | 72 |
| C#CCN1C(=O)C(CC(C)C)NC12CCN(C(=S)Nc1cc(Cl)cc(Cl)c1)CC2 (stereo not drawn) [Example 195, 3-Isobutyl-2-oxo-1-prop-2-ynyl-1,4,8-triazaspiro[4,5]decan-8-thiocarboxylic acid (3,5-dichlorobenzol)amide] | 30 | 77 |
| CCOC(=O)CN1C(=O)C(CCSC)NC12CCN(C(=O)Nc1ccccc1)CC2 (stereo not drawn) [Example 203, Ethyl[3-(2-methylsulfanylethyl)-2-oxo-8-benzolcarbamoyl-1,4,8-triazaspiro[4,5]dec-1-yl]-acetate] | 40 | 32 |
| COC(=O)c1ccc(CN2C(=O)C(C(C)C)NC23CCN(C(=O)NC2CCCCC2)CC3)cc1 (stereo not drawn) [Example 206, Methyl 4-(8-cyclohexylcarbamoyl-3-isopropyl-2-oxo-1,4,8-triazaspiro[4,5]dec-1-ylmethyl)benzoate] | 39 |  |
| CC(C)CC1NC2(CCN(C(=O)NCc3ccc(Cl)c(Cl)c3)CC2)N(Cc2ccccc2C#N)C1=O (stereo not drawn) [Example 217, 1-(2-Cyanobenzyl)-3-isobutyl-2-oxo-1,4,8-triazaspiro[4,5]decan-8-carboxylic acid 3,4-dichlorobenzylamide] | 39 | 78 |
| CSCCC1NC2(CCN(C(=O)Nc3ccc(OC(F)(F)F)cc3)CC2)N(C)C1=O (stereo not drawn) [Example 222, 1-Methyl-3-(2-methylsulfanylethyl)-2-oxo-1,4,8-triazaspiro[4,5]decan-8-carboxylic acid (4-trifluoromethoxy-benzol)amide] | 30 | 48 |
| COC(=O)c1ccc(CN2C(=O)C(C(C)C)NC23CCN(C(=O)Nc2cccc(OC)c2)CC3)cc1 (stereo not drawn) [Example 223, Methyl 4-[3-isopropyl-8-(3-methoxy-benzolcarbamoyl)-2-oxo-1,4,8-triazaspiro[4,5]dec-1-ylmethyl]-benzoate] | 31 |  |
| CSCCC1NC2(CCN(C(=O)NCc3ccc(Cl)c(Cl)c3)CC2)N(Cc2ccccc2C#N)C1=O (stereo not drawn) [Example 229, 1-(2-Cyanobenzyl)-3-(2-methylsulfanylethyl)-2-oxo-1,4,8-triazaspiro[4,5]decan-8-carboxylic acid 3,4-dichlorobenzylamide] | 40 | 69 |
